These are literature values, as cited in patent publication EP1136069A1, “Pharmaceutical compositions containing clodronates for high local tolerance intramuscular administration” (SPA SOCIETA' PRODOTTI ANTIBIOTICI S.p.A., priority 2000, dated 2001).

The conditions of this data set: oral route.

Regarding `O=P(O)(O)C(Cl)(Cl)P(=O)(O)O` [clodronate], the bioavailability was 1-4%.
